What was measured:
[1] = system: secretory duct of the sweat gland (whole sweat glands); experiment: Test Example 1: time-lapse imaging of isolated whole sweat glands, moving distance of nuclei after pyrocarpin stimulation; assay type: cell-based, human; settings: for movement of the secretory duct of the sweat gland: observed in the time-lapse photographed image, antiperspirant contacted with whole sweat glands
Procedure: As skin tissues, skin tissues which were refrigerated immediately after isolating from living donors and stored at 4° C. for 15 hours were used. The skin tissues were immersed in PBS containing 10 μM staining agent (Neutral Red), to label the sweat glands included in the skin tissues. Next, the dermis of each of the skin tissues including the staining agent was finely cut to obtain dermal segments. Whole sweat glands were collected from the dermal segments by using tweezers under an optical microscope.
The whole sweat glands obtained in Test Example 1(1) were immersed in the staining reagent mixture obtained in Production Example 1 at room temperature (24° C.) for 30 minutes, to stain the whole sweat glands. The stained whole sweat glands were washed with PBS.
The washed whole sweat glands obtained in Test Example 1(2) were allowed to stand on a glass bottom dish under a stereoscopic microscope manufactured by Leica under the trade name of M125. The collagen-containing liquid obtained in Production Example 2 was added dropwise to the whole sweat glands that were allowed to stand on the glass bottom dish. Next, the above-mentioned glass bottom dish was incubated at 37° C. for 5 minutes to gelate the collagen type I-A contained in the collagen-containing liquid placed on the whole sweat glands. Thereafter, 300 μL of PBS was added onto the above-mentioned whole sweat glands so as not to dry the whole sweat glands. Thus, the whole sweat glands were held on the glass bottom dish used as a support with the collagen type I-A so that the position of each of the whole sweat glands was retained, to obtain an observation sample.
While adhesion of the whole sweat glands to the glass bottom dish with the gelated collagen type I-A was confirmed under the stereoscopic microscope, an aliquot of Dulbecco's phosphate buffer [manufactured by Gibco, Catalog No. 14190-144] was added to the glass bottom dish used as a support.
The antiperspirant obtained in Example 1 in an amount of 3 μL was contacted with the whole sweat glands on the glass bottom dish in the observation sample. The observation of the whole sweat glands on the glass bottom dish with the time-lapse imaging was initiated by using a confocal laser scanning microscope for biological uses [inverted microscope manufactured by Olympus Corporation under the trade name of IX-83 equipped with a device manufactured by Olympus Corporation under the trade name of FV 1200]. At that time, the whole sweat glands were visualized by detecting fluorescence derived from the nuclear staining reagent bound to the nuclei and fluorescence derived from the cytoskeleton-staining reagent bound to the cytoskeleton. After 600 seconds passed from the initiation of the observation, 30 μL of the sweat gland-stimulating agent obtained in Production Example 3 was contacted with the whole sweat glands on the glass bottom dish, and thereafter the observation with the time-lapse imaging was continued. […]
Next, five cells were selected from a cell group in the lumen of the secretory duct in the time-lapse photographed image of the whole sweat glands, and five cells were selected from a cell group in the outer periphery of the secretory duct. […] In order to measure a moving distance of the nuclei of the cell, firstly changes (differences) in coordinates between consecutive frames were calculated by using X-coordinate and Y-coordinate of the nuclei of each cell in accordance with the formulae (XI) and (XII): […]

[2] = system: armpit sweating of expert panelists; experiment: Test Example 3: degree of sweating scored by expert panelists after application to armpit and light exercise; assay type: in vivo, human; settings: applied to each armpit of ten expert panelists, light exercise; compared with control sample of Comparative Example 1 (PBS)
Description: The antiperspirant obtained in Example 1 is applied to each armpit of ten expert panelists having the same proficiency in evaluation skill, and then the expert panelists are subjected to a light exercise. Thereafter, each of the expert panelists gives a score of the degree of sweating on the basis of the following criteria for evaluation. In addition, each of the expert panelists gives a score of the degree of sweating in the same manner as in the above except that the control sample of Comparative Example 1 is used in place of the antiperspirant obtained in Example 1. The average of the scores given by the expert panelists is calculated.
0 point: sweat in a large amount.
2 points: slightly sweat.

[3] = system: secretory duct of the sweat gland (whole sweat glands); experiment: Test Example 2: time-lapse imaging of isolated whole sweat glands, average moving distance of nuclei of secretory duct cells; assay type: cell-based, human; settings: antiperspirant as prepared contacted first; stimulating agent of Production Example 4 (10 mM pyrocalpin); five cells; FIG. 3 to FIG. 8
Procedure: Each of the antiperspirants obtained in Examples 2 to 7 was contacted with the whole sweat glands respectively, and change of the average of moving distances of nuclei of cells of a secretory duct of the sweat gland was examined with passage of time. Whether or not nuclei of cells of the secretory duct of the sweat gland moved was determined based on the results shown in FIG. 3 to FIG. 8, and evaluated in accordance with the following criteria for evaluation. […] The maximum value of the average of moving distances of nuclei of cells of the secretory duct of the sweat gland exceeds 1 μm: the nuclei of cells of the secretory duct of the sweat glands are moved.

Row | Molecule | movement of the secretory duct of the sweat gland [1] | average of the scores of the degree of sweating (0 to 4 points) [2] | movement of nuclei of cells of the secretory duct of the sweat gland (maximum of average of moving distances) [3] | other results
1 | CC1(C(=O)O)CCC2(C)CCC3(C)C(=CC(=O)C4C5(C)CCC(OC(=O)CCC(=O)O)C(C)(C)C5CCC43C)C2C1 (centres unmarked) [Example 1] | suppressed | tends to be higher |  | movement of nuclei of the cells of the lumen of the secretory duct of the sweat gland ([1]; 3 μL antiperspirant contacted first, 30 μL sweat gland-stimulating agent (100 mM pyrocarpin) after 600 seconds, FIG. 2A white circle): hardly moved; movement of nuclei of the cells of the outer periphery of the secretory duct of the sweat gland ([1]; 3 μL antiperspirant contacted first, 30 μL sweat gland-stimulating agent (100 mM pyrocarpin) after 600 seconds, FIG. 2A white triangle): hardly moved
2 | CC1(C)[C@@H](O)CC[C@]2(C)[C@H]3C(=O)C=C4[C@H]5C[C@@](C)(C(=O)O)CC[C@]5(C)CC[C@@]4(C)[C@]3(C)CC[C@@H]12 [Example 2, 18α-glycyrrhetinic acid] |  |  | hardly moved | 
3 | CC1(C)[C@@H](O)CC[C@]2(C)[C@H]3C(=O)C=C4[C@@H]5C[C@@](C)(C(=O)O)CC[C@]5(C)CC[C@@]4(C)[C@]3(C)CC[C@@H]12 [Example 3, 18β-glycyrrhetinic acid] |  |  | hardly moved | 
4 | C[C@H]1[C@H](C)CC[C@]2(C(=O)O)CC[C@]3(C)C(=CC[C@@H]4[C@@]5(C)CC[C@H](O)C(C)(C)[C@@H]5CC[C@]43C)[C@H]12 [Example 4, ursolic acid] |  |  | hardly moved | 
5 | CC1(C)CC[C@]2(C(=O)O)CC[C@]3(C)C(=CC[C@@H]4[C@@]5(C)CC[C@H](O)C(C)(C)[C@@H]5CC[C@]43C)[C@@H]2C1 [Example 5, oleanolic acid] |  |  | hardly moved | 
6 | CC1(C(=O)O)CCC2(C)CCC3(C)C(=CC(=O)C4C5(C)CCC(O)C(C)(C)C5CCC43C)C2C1 (centres unmarked) [formula (IX)] | the same tendency as the antiperspirant obtained in Example 1 | the same tendency as the antiperspirant obtained in Example 1 |  | 
7 | CC1(C(=O)O)CCC2(C)CCC3(C)C(=CC(=O)C4C5(C)CCC(OC6OC(C(=O)O)C(O)C(O)C6OC6OC(C(=O)O)C(O)C(O)C6O)C(C)(C)C5CCC43C)C2C1 (centres unmarked) [formula (X)] | the same tendency as the antiperspirant obtained in Example 1 | the same tendency as the antiperspirant obtained in Example 1 |  | 
8 | α-amylin [Example 6] |  |  | hardly moved | 
9 | β-amylin [Example 7] |  |  | hardly moved | 

Source: patent US20210361549A1, “ANTIPERSPIRANT” (MANDOM CORPORATION, priority 2018, published 2021)
